Experimental data published in publication PMC11240139, “Exploring the antitumor potential of novel quinoline derivatives via tubulin polymerization inhibition in breast cancer; design, synthesis and molecular docking” (RSC Advances, 2024).

Legend:
Format in all cases: cell-based
SK-MEL-28 (melanoma) = experiment: NCI-60 SRB cytotoxicity screen; details: Homo sapiens; SK-MEL-28, single dose 10 μM; read-out: growth inhibition (GI%)
COLO 205 (colon cancer) = experiment: NCI-60 SRB cytotoxicity screen; details: Homo sapiens; COLO 205, single dose 10 μM; read-out: growth inhibition (GI%)
RXF 393 (renal cancer) = experiment: NCI-60 SRB cytotoxicity screen; details: Homo sapiens; RXF 393, single dose 10 μM; read-out: growth inhibition (GI%)
HCC-2998 (colon cancer) = experiment: NCI-60 SRB cytotoxicity screen; details: Homo sapiens; HCC-2998, single dose 10 μM; read-out: growth inhibition (GI%)
[1] = system: NCI-H23 (non-small cell lung cancer); experiment: NCI-60 SRB cytotoxicity screen; details: Homo sapiens; NCI-H23, single dose 10 μM; read-out: growth inhibition (GI%)
RPMI-8226 (leukemia) = experiment: NCI-60 SRB cytotoxicity screen; details: Homo sapiens; RPMI-8226, single dose 10 μM; read-out: growth inhibition (GI%)
UACC-62 (melanoma) = experiment: NCI-60 SRB cytotoxicity screen; details: Homo sapiens; UACC-62, single dose 10 μM; read-out: growth inhibition (GI%)
HL-60(TB) (leukemia) = experiment: NCI-60 SRB cytotoxicity screen; details: Homo sapiens, single dose 10 μM, read-out: growth inhibition (GI%)
IGROV1 (ovarian cancer) = experiment: NCI-60 SRB cytotoxicity screen; details: Homo sapiens, IGROV-1; IGROV1, single dose 10 μM; read-out: growth inhibition (GI%)
HS 578T (breast cancer) = experiment: NCI-60 SRB cytotoxicity screen; details: Homo sapiens, single dose 10 μM, read-out: growth inhibition (GI%)
[2] = system: MDA-MB-468 (breast cancer); experiment: NCI-60 SRB cytotoxicity screen; details: Homo sapiens; MDA-MB-468, single dose 10 μM; read-out: growth inhibition (GI%)
Procedure, shortened: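 NCI-60 single-dose (10^−5 M) screen in MDA-MB-468 with SRB protein-stain read-out after 48 h exposure; cells TCA-fixed and absorbance read at 540 nm. Reported as GI%, with compounds meeting NCI activity criteria then run at five doses (0.01–100 μM).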

HCT-116 (colon cancer) = experiment: NCI-60 SRB cytotoxicity screen; details: Homo sapiens; HCT-116, single dose 10 μM; read-out: growth inhibition (GI%)
SNB-19 (CNS cancer) = experiment: NCI-60 SRB cytotoxicity screen; details: Homo sapiens; SNB-19, single dose 10 μM; read-out: growth inhibition (GI%)
[3] = system: 60 cancer cell lines (NCI); experiment: NCI-60 single-dose screen, overall verdict over the panel; details: single dose 10 μM, whole panel
Procedure, shortened: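 Compounds were tested at a single 10^−5 M dose across the NCI 60 cell line panel, with cells preincubated 24 h before treatment. Viability was measured by TCA fixation and sulforhodamine B staining, absorbance 540 nm. % cytotoxicity = [1 − (sample/negative control absorbance)] × 100.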

KM12 (colon cancer) = experiment: NCI-60 SRB cytotoxicity screen; details: Homo sapiens; KM12, single dose 10 μM; read-out: growth inhibition (GI%)
SK-MEL-5 (melanoma) = experiment: NCI-60 SRB cytotoxicity screen; details: Homo sapiens; SK-MEL-5, single dose 10 μM; read-out: growth inhibition (GI%)
K-562 (leukemia) = experiment: NCI-60 SRB cytotoxicity screen; details: Homo sapiens; K-652 [sic], single dose 10 μM; read-out: growth inhibition (GI%)
SR (leukemia) = experiment: NCI-60 SRB cytotoxicity screen; details: single dose 10 μM, read-out: growth inhibition (GI%)
MCF7 (breast cancer) = experiment: NCI-60 SRB cytotoxicity screen; details: Homo sapiens; MCF7, single dose 10 μM; read-out: growth inhibition (GI%)
OVCAR-3 (ovarian cancer) = experiment: NCI-60 SRB cytotoxicity screen; details: Homo sapiens; OVCAR-3, single dose 10 μM; read-out: growth inhibition (GI%)
DU-145 (prostate cancer) = experiment: NCI-60 SRB cytotoxicity screen; details: Homo sapiens; DU-145, single dose 10 μM; read-out: growth inhibition (GI%)
[4] = system: HOP-62 (non-small cell lung cancer); experiment: NCI-60 SRB cytotoxicity screen; details: Homo sapiens; HOP-62, single dose 10 μM; read-out: growth inhibition (GI%)
[5] = system: NCI-H522 (non-small cell lung cancer); experiment: NCI-60 SRB cytotoxicity screen; details: Homo sapiens; NCI-H522, single dose 10 μM; read-out: growth inhibition (GI%)
SF-268 (CNS cancer) = experiment: NCI-60 SRB cytotoxicity screen; details: Homo sapiens; SF-268, single dose 10 μM; read-out: growth inhibition (GI%)
BT-549 (breast cancer) = experiment: NCI-60 SRB cytotoxicity screen; details: Homo sapiens; BT-549, single dose 10 μM; read-out: growth inhibition (GI%)
T-47D (breast cancer) = experiment: NCI-60 SRB cytotoxicity screen; details: Homo sapiens, T47D, single dose 10 μM, read-out: growth inhibition (GI%)

Row | SMILES | inhibition at 10 µM (SK-MEL-28 (melanoma)) [%] | inhibition at 10 µM (COLO 205 (colon cancer)) [%] | inhibition at 10 µM (RXF 393 (renal cancer)) [%] | inhibition at 10 µM (HCC-2998 (colon cancer)) [%] | inhibition at 10 µM [1] [%] | inhibition at 10 µM (RPMI-8226 (leukemia)) [%] | inhibition at 10 µM (UACC-62 (melanoma)) [%] | inhibition at 10 µM (HL-60(TB) (leukemia)) [%] | inhibition at 10 µM (IGROV1 (ovarian cancer)) [%] | inhibition at 10 µM (HS 578T (breast cancer)) [%] | inhibition at 10 µM [2] [%] | inhibition at 10 µM (HCT-116 (colon cancer)) [%] | inhibition at 10 µM (SNB-19 (CNS cancer)) [%] | cytotoxic activity over the cell lines (in words) [3] | inhibition at 10 µM (KM12 (colon cancer)) [%] | inhibition at 10 µM (SK-MEL-5 (melanoma)) [%] | inhibition at 10 µM (K-562 (leukemia)) [%] | inhibition at 10 µM (SR (leukemia)) [%] | inhibition at 10 µM (MCF7 (breast cancer)) [%] | inhibition at 10 µM (OVCAR-3 (ovarian cancer)) [%] | other results
1 | CCc1cccc2cc(-c3cc(-c4ccc(OC)cc4)[nH]c(=S)c3C#N)c(Cl)nc12 [Compound 5a, 4-(2-Chloro-8-ethylquinolin-3-yl)-6-(4-methoxyphenyl)-2-thioxo-1,2-dihydropyridine-3-carbonitrile] | < 10 | < 10 | 20.6 | < 10 | 11.8 | 15.7 | 20.5 | 14.9 | 12.9 | 19.8 | 18.7 | 14.8 | 13.2 | slight cytotoxic activity | < 10 | < 10 | 28.8 | 11.6 | 20.8 | < 10 | inhibition at 10 µM (DU-145 (prostate cancer)): < 10%; inhibition at 10 µM [4]: < 10%; inhibition at 10 µM [5]: 19.6%; inhibition at 10 µM (SF-268 (CNS cancer)): 23.1%; inhibition at 10 µM (BT-549 (breast cancer)): 20.4%; inhibition at 10 µM (T-47D (breast cancer)): 12.7%
2 | CCc1cccc2cc(-c3cc(-c4ccc(OC)c(OC)c4)[nH]c(=S)c3C#N)c(Cl)nc12 [Compound 5b, 4-(2-Chloro-8-ethylquinolin-3-yl)-6-(3,4-dimethoxyphenyl)-2-thioxo-1,2-dihydropyridine-3-carbonitrile] | < 10 | < 10 | 24.6 | < 10 | 20.3 | 29.2 | 19.1 | < 10 | < 10 | 23.1 | 22.8 | < 10 | 22.6 | slight cytotoxic activity | 19.9 | 21 | 28 | < 10 | 26.6 | < 10 | inhibition at 10 µM (DU-145 (prostate cancer)): 20.2%; inhibition at 10 µM [4]: < 10%; inhibition at 10 µM [5]: < 10%; inhibition at 10 µM (SF-268 (CNS cancer)): 32.2%; inhibition at 10 µM (BT-549 (breast cancer)): 28.2%; inhibition at 10 µM (T-47D (breast cancer)): 41.1%
